According to patent publication US20250129070A1, “BIFUNCTIONAL ANDROGEN RECEPTOR COMPOUNDS” (priority 2023, published 2025):

Experiments:
VCaP cells = assay: VCaP growth inhibition assay; format: cell-based; conditions: 30 pM R1881, 9 days, CTG
Summary of the method: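 Growth read by CTG luminescence after 9-day exposure to compound (final 100 nM–10 fM, 1:5 steps) plus 30 pM R1881, in phenol red-free DMEM with 5% CSS. Cells pre-incubated 72 h before dosing; IC50 by nonlinear 4-parameter regression.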

AR / CBP ternary complex = assay: Ternary complex formation assay (sandwich ELISA, AR capture / CBP detection) in VCaP cell lysates; format: cell-based; conditions: 1.5 hours treatment, sandwich ELISA (AR capture, CBP or p300 detection)
Summary of the method: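 Anti-AR (AR 441)-coated plates capture AR from lysates of VCaP cells grown ≥3 days at 50K/well in 5% charcoal-stripped FBS, dosed with bifunctional for 1.5 h and lysed 30 min at 4 °C. Co-captured CBP/p300 is probed with rabbit mAb and HRP anti-rabbit, then QuantaRed fluorescence (570/585) is read at 0, 5 and 15 min.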

| Compound | IC50 (VCaP cells) [nM] | EC50 (AR / CBP ternary complex) [nM] |
| --- | --- | --- |
| CC(=O)N1CCc2c(c(N3CCCc4cc(-c5cnn(C)c5)c(C(F)(F)F)cc43)nn2C2CCN(CC3CCN(c4ncc(C(=O)NC5C(C)(C)C(Oc6ccc(C#N)c(Cl)c6)C5(C)C)cn4)CC3)CC2)C1 (stereo not shown) [Compound 27, 2-[4-[[4-[5-acetyl-3-[6-(1-methylpyrazol-4-yl)-7-(trifluoromethyl)-3,4-dihydro-2H-quinolin-1-yl]-6,7-dihydro-4H-pyrazolo[4,3-c]pyridin-1-yl]-1-piperidyl]methyl]-1-piperidyl]-N-[3-(3-chloro-4-cyano-phenoxy)-2,2,4,4-tetramethyl-cyclobutyl]pyrimidine-5-carboxamide] | 0.1 to 1 | < 1 |
| COc1cc(OC2C(C)(C)C(NC(=O)c3ccc(N4CCC(CCc5ccc(-c6cc7c(cc6C(F)F)N(c6nn(C8CCOCC8)c8c6CN(C(C)=O)CC8)CCC7)cc5)CC4)cc3)C2(C)C)ccc1C#N (stereo not shown) [Compound 248, 4-[4-[2-[4-[1-(5-acetyl-1-tetrahydropyran-4-yl-6,7-dihydro-4H-pyrazolo[4,3-c]pyridin-3-yl)-7-(difluoromethyl)-3,4-dihydro-2H-quinolin-6-yl]phenyl]ethyl]-1-piperidyl]-N-[3-(4-cyano-3-methoxy-phenoxy)-2,2,4,4-tetramethyl-cyclobutyl]benzamide] | 0.1 to 1 | < 1 |
| COc1cc(OC2C(C)(C)C(NC(=O)c3ccc(N4CCC(CN5CCC(n6nc(N7CCCc8cc(-c9cnn(C)c9)c(C(F)F)cc87)c7c6CCN(C(C)=O)C7)CC5)(OC)CC4)cc3)C2(C)C)ccc1C#N (stereo not shown) [Compound 264, 4-[4-[[4-[5-acetyl-3-[7-(difluoromethyl)-6-(1-methylpyrazol-4-yl)-3,4-dihydro-2H-quinolin-1-yl]-6,7-dihydro-4H-pyrazolo[4,3-c]pyridin-1-yl]-1-piperidyl]methyl]-4-methoxy-1-piperidyl]-N-[3-(4-cyano-3-methoxy-phenoxy)-2,2,4,4-tetramethyl-cyclobutyl]benzamide] | 0.1 to 1 | < 1 |
| COc1cc(OC2C(C)(C)C(NC(=O)c3ccc(N4CCN(CCc5ccc(-c6cc7c(cn6)N(c6nn(C8CCOCC8)c8c6CN(C(C)=O)CC8)CCC7)cn5)CC4)cc3)C2(C)C)ccc1C#N (stereo not shown) [Compound 251, 4-[4-[2-[5-[1-(5-acetyl-1-tetrahydropyran-4-yl-6,7-dihydro-4H-pyrazolo[4,3-c]pyridin-3-yl)-3,4-dihydro-2H-1,7-naphthyridin-6-yl]-2-pyridyl]ethyl]piperazin-1-yl]-N-[3-(4-cyano-3-methoxy-phenoxy)-2,2,4,4-tetramethyl-cyclobutyl]benzamide] | 0.1 to 1 | < 1 |
| COc1cc(OC2C(C)(C)C(NC(=O)c3ccc(N4CCC(C5CN(c6ccc(-c7cc8cccc(-c9nn(C%10CCOCC%10)c%10c9CN(C(C)=O)CC%10)c8cn7)cn6)C5)CC4)cc3)C2(C)C)ccc1C#N (stereo not shown) [Compound 268, 4-[4-[1-[5-[8-(5-acetyl-1-tetrahydropyran-4-yl-6,7-dihydro-4H-pyrazolo[4,3-c]pyridin-3-yl)-3-isoquinolyl]-2-pyridyl]azetidin-3-yl]-1-piperidyl]-N-[3-(4-cyano-3-methoxy-phenoxy)-2,2,4,4-tetramethyl-cyclobutyl]benzamide] | 0.1 to 1 | < 1 |
| COc1cc(OC2C(C)(C)C(NC(=O)c3ccc(N4CC5(CCC(N6CCC(n7nc(-c8cccc9cc(-c%10cnn(C)c%10)ncc89)c8c7CCN(C(C)=O)C8)CC6)CC5)C4)cc3)C2(C)C)ccc1C#N (stereo not shown) [Compound 448, 4-[7-[4-[5-acetyl-3-[3-(1-methylpyrazol-4-yl)-8-isoquinolyl]-6,7-dihydro-4H-pyrazolo[4,3-c]pyridin-1-yl]-1-piperidyl]-2-azaspiro [3.5]nonan-2-yl]-N-[3-(4-cyano-3-methoxy-phenoxy)-2,2,4,4-tetramethyl-cyclobutyl]benzamide] | 0.1 to 1 | < 1 |
| CC(=O)N1CCc2c(c(N3CCCc4cc(-c5cnn(C)c5)c(C)cc43)nn2C2CCN(C3CCC4(CC3)CN(c3ncc(C(=O)NC5C(C)(C)C(Oc6ccc(C#N)c(Cl)c6)C5(C)C)cn3)C4)CC2)C1 (stereo not shown) [Compound 468, 2-[7-[4-[5-acetyl-3-[7-methyl-6-(1-methylpyrazol-4-yl)-3,4-dihydro-2H-quinolin-1-yl]-6,7-dihydro-4H-pyrazolo[4,3-c]pyridin-1-yl]-1-piperidyl]-2-azaspiro[3.5]nonan-2-yl]-N-[3-(3-chloro-4-cyano-phenoxy)-2,2,4,4-tetramethyl-cyclobutyl]pyrimidine-5-carboxamide] | 0.1 to 1 | < 1 |
| CC(=O)N1CCc2c(c(-c3cccc4cc(-c5ccc(CCC6CC7(C6)CN(c6ncc(C(=O)NC8C(C)(C)C(Oc9ccc(C#N)c(Cl)c9)C8(C)C)cn6)C7)nc5)ncc34)nn2C2CCOCC2)C1 (stereo not shown) [Compound 227, 2-[6-[2-[5-[8-(5-acetyl-1-tetrahydropyran-4-yl-6,7-dihydro-4H-pyrazolo[4,3-c]pyridin-3-yl)-3-isoquinolyl]-2-pyridyl]ethyl]-2-azaspiro[3.3]heptan-2-yl]-N-[3-(3-chloro-4-cyano-phenoxy)-2,2,4,4-tetramethyl-cyclobutyl]pyrimidine-5-carboxamide] | ≤ 0.1 | < 1 |
| CC(=O)N1CCc2c(c(N3CCCc4cc(-c5cnn(C)c5)c(C(F)F)cc43)nn2C2CCC3(CCCN(c4ncc(C(=O)NC5C(C)(C)C(Oc6ccc(C#N)c(Cl)c6)C5(C)C)cn4)C3)CC2)C1 (stereo not shown) [Compound 412, 2-[9-[5-acetyl-3-[7-(difluoromethyl)-6-(1-methylpyrazol-4-yl)-3,4-dihydro-2H-quinolin-1-yl]-6,7-dihydro-4H-pyrazolo[4,3-c]pyridin-1-yl]-2-azaspiro[5.5]undecan-2-yl]-N-[3-(3-chloro-4-cyano-phenoxy)-2,2,4,4-tetramethyl-cyclobutyl]pyrimidine-5-carboxamide] | > 100 | > 100 |
| CC(=O)N1CCc2c(c(N3CCCc4ccc(C(F)F)cc43)nn2C2CCN(CC3CCN(c4ncc(C(=O)NC5C(C)(C)C(Oc6ccc(C#N)c(Cl)c6)C5(C)C)cn4)CC3)CC2)C1 (stereo not shown) [Compound 150, 2-[4-[[4-[5-acetyl-3-[7-(difluoromethyl)-3,4-dihydro-2H-quinolin-1-yl]-6,7-dihydro-4H-pyrazolo[4,3-c]pyridin-1-yl]-1-piperidyl]methyl]-1-piperidyl]-N-[3-(3-chloro-4-cyano-phenoxy)-2,2,4,4-tetramethyl-cyclobutyl]pyrimidine-5-carboxamide] | ≤ 0.1 | 1 to 10 |
| Cn1c(=O)sc2ccc(-c3cccc4cc(-c5ccc(CCC6CCN(c7ncc(C(=O)NC8C(C)(C)C(Oc9ccc(C#N)c(Cl)c9)C8(C)C)cn7)CC6)nc5)ncc34)cc21 (stereo not shown) [Compound 235, N-[3-(3-chloro-4-cyano-phenoxy)-2,2,4,4-tetramethyl-cyclobutyl]-2-[4-[2-[5-[8-(3-methyl-2-oxo-1,3-benzothiazol-5-yl)-3-isoquinolyl]-2-pyridyl]ethyl]-1-piperidyl]pyrimidine-5-carboxamide] | > 100 | < 1 |
